Source: patent US9643977B2, “Necroptosis inhibitors and methods of use therefor” (President and Fellows of Harvard College, priority 2011, dated 2017)
Where a SMILES comes first, the peptide text is derived from it. The star is where a group is joined. Cbz = O=C(OCc1ccccc1)*; CH2F = FC*

Assays:
L929 cells [1] = test: Viability by ATP luminescence assay, L929 cells treated with CD40L and IFNγ; assay type: cell-based; conditions: 10 μM, 24 hours, 0.2 μg/ml CD40L, 100 U/ml IFNγ, FIG. 13A
Procedure: (§1) A, L929 cells were treated with 0.2 μg/ml CD40L, 100 U/ml IFNγ, and/or 1 μg/ml TNFα neutralizing antibody and then treated with 10 μM Nec-1 (right bar) or a DMSO control (left bar) for 24 hours. Viability was measure by ATP luminescence assay. B, BV-2 cells were pretreated with 100 U/ml IFNγ for 20 hours, and treated with 0.1 μg/ml CD40L for 4 or 8 hours. TNFα secretion was measured by ELISA.
The role of RIP1 in CD40L induced TNFα production was investigated.

[2] = test system: TNFα secretion by splenic macrophages; test: TNFα ELISA, splenic macrophages stimulated by CD154 and IFNγ; assay type: cell-based, C57BL/6 mouse; conditions: 10 μM, pretreated 1 hour, then 24 hours 1 μg/ml CD154 and 100 U/ml IFNγ, FIG. 6
Procedure: To further explore the role of RIP1 kinase in mediating CD40 signaling, the effect of necrostatins on the production of TNFα by primary macrophages stimulated by CD154 was tested. Splenocytes isolated from a C57BL/6 mouse were cultured for 10 days in RPMI media with 10% FBS and 50 μM 2-mercaptoethanol. The attached cells were harvested as splenic macrophages. The macrophages were pretreated for 1 hour with 10 μ[…] Nec-1, 10 μM Nec-21, 10 μM Nec-29, or 1 μM Nec-12, then treated for 24 hours with 1 μg/ml recombinant CD154 (CD40L, R&D Systems) and/or 100 U/ml IFNγ as. TNFα secretion in the cell culture supernatant was analyzed by ELISA assay. As depicted in FIG. 6, the production of TNFα in splenic macrophages stimulated by CD154 in the presence of IFNγ was inhibited by Nec-1 as well as by the three other necrostatins tested, Nec-12, Nec-21 and Nec-29. These experiments indicate that RIP1 is involved in mediating TNFα production downstream of CD40 activation.

[3] = test system: TNFα production in L929 cells; test: TNFα ELISA on cell lysates, L929 cells treated with SM-164; assay type: cell-based
Procedure: (§2) Smac mimetic compounds are IAP antagonists that induce the production of TNFα. Smac mimetic compounds induce the autoubiquitination and degradation of cIAP1. […] This cell death was inhibited by treatment with 10 μM Nec-1, or with 0.2 μg/ml or 1.0 μg/ml of TNFα neutralizing antibody (FIG. 2A).

L929 cells [4] = test: Cell viability by ATP assay, L929 cells transfected with Traf2 siRNA; assay type: cell-based; conditions: 10 μM, 48 hours, FIG. 3A
Procedure: (§3) In the TNFα signaling pathway, cIAP1, the target of Smac mimetic compounds, interacts closely with another protein, Traf2. L929 cells were transfected with Traf2 siRNA, treated with 10 μM Nec-1 or 1.0 μg/ml anti-TNFα antibody for 48 hours and cell viability measured by ATP assay. […] This death was also dependent on TNFα production, as it was inhibited by treatment with a TNFα neutralizing antibody or with knockdown of TNFR1 (FIGS. 3A and 3B). […] One such treatment is lipopolysaccharide (LPS), a component of the bacterial outer membrane. […] However, treatment of such cells with 10 μM Nec-1 has no effect on TNFα production in this case (FIG. 4).

L929 cells [5] = test: Cell viability by ATP assay, L929 cells treated with Smac mimetic SM-164; assay type: cell-based
Procedure: as §2

[6] = test system: TNFα production in J774 cells; test: TNFα ELISA, J774 cells treated with LPS; assay type: cell-based, murine; conditions: 10 μM, J774 cells with 1 μg/ml LPS, cell lysate, FIG. 4
Procedure: as §3

[7] = test system: TNFα secretion by BV-2 cells; test: TNFα ELISA, BV-2 cells pretreated with IFNγ and treated with CD40L; assay type: cell-based; conditions: 100 U/ml IFNγ 20 hours, 0.1 μg/ml CD40L 4 or 8 hours, FIG. 13B
Procedure: as §1
To confirm the role of RIP1 in CD40L-induced TNFα production, BV-2 cells were pretreated with IFNγ and CD40L to induce TNFα production and then exposed to Nec-1.

[8] = test system: TNFα production in BV2 cells; test: TNFα mRNA by quantitative PCR, BV2 cells treated with Aβ42; assay type: cell-based; conditions: 10 μM, 30 minutes before Aβ42 200 nM, FIG. 10A
Procedure: (§4) The levels of TNFα mRNA were measured by quantitative PCR. B) Microglia primary cultures were incubated for 30 minutes with or without 10 μM Nec-1 prior to being treated with Aβ42 (200 nM). TNFα secretion was measured by ELISA. The data correspond to the mean±SD (N=3). C) Cell survival of microglia primary cultures treated with Aβ42 (200 nM) for indicated times with and without Nec1 was measured by CellTiter-Glo® assay. Error bars represent the mean of two different experiments.
(§5) The role played by RIP1 in the induction of TNFα production by amyloid-β in microglial cells was investigated.

[9] = test system: TNFα secretion by microglia primary cultures; test: TNFα ELISA, microglia primary cultures treated with Aβ42; assay type: cell-based; conditions: 10 μM, 30 minutes before Aβ42 200 nM, FIG. 10B
Procedure: as §4, §5

L929 cells [10] = test: Cell survival by CellTiter-Glo, L929 cells treated with CD154 and/or IFNγ; assay type: cell-based; conditions: 10 μM, 32 hrs, CD154 0.1 μg/ml, FIG. 5
Procedure: To test the involvement of CD40 in necroptosis, L929 cells were treated with CD154 (0.1 μg/ml), IFNγ (100 U/ml) and/or TNFα neutralizing antibody (1 μg/ml) alone or in combination and with or without Nec-1 (10 μM) for 32 hrs. Following treatment, cell survival was determined by CellTiter-Glo (Promega). As depicted in FIG. 5, the death of L929 cells induced by either the presence of either CD154 alone or by the presence of both CD154 and IFNγ was inhibited by Nec-1. Thus, RIP1 kinase selectively mediates intracellular signaling downstream of CD40 stimulation

[11] = test system: TNFα production in J774 cells; test: TNFα ELISA, J774 cells treated with zVAD.fmk (cell lysate and supernatant); assay type: cell-based, murine; conditions: FIG. 1
Procedure: The role of RIP1 kinase in the regulation of TNFα induction was investigated. zVAD.fmk is a caspase inhibitor that induces TNFα expression in various cell types. Murine macrophage J774 cells were treated with 20 μM zVAD.fmk and 10 μM of necrostatin and RIP1 inhibitor Nec-1 for the various periods of time. Cell lysates were extracted and analyzed by TNFα specific ELISA. As depicted in FIG. 1, treatment with zVAD.fmk induces an upregulation in TNFα protein levels as measured by ELISA in the cell lysate.

[12] = test system: microglia primary cultures; test: Cell survival by CellTiter-Glo, microglia primary cultures treated with Aβ42; assay type: cell-based; conditions: Aβ42 200 nM, FIG. 10C
Procedure: as §4, §5

CN1C(=O)C(Cc2c[nH]c3ccccc23)NC1=S (stereo not shown) [Nec-1]
viability of cells cultured in IFNγ and CD40L (L929 cells [1]): largely restored | inhibition of TNFα production stimulated by CD154 in the presence of IFNγ [2]: inhibited | inhibition of SM-164-induced TNFα production ([3]; co-treatment, FIG. 2B): completely inhibited | inhibition of cell death induced by loss of Traf2 (L929 cells [4]): completely inhibit | inhibition of SM-164-induced cell death (L929 cells [5]; 10 μM, L929 cells with 100 nM SM-164, FIG. 2A): inhibited | effect on LPS-induced TNFα production [6]: no effect | inhibition of CD40L-induced TNFα production [7]: significantly inhibited | levels of TNFα (mRNA) after Aβ42 exposure [8]: reduced levels of TNFα | levels of TNFα (secretion) after Aβ42 exposure [9]: reduced levels of TNFα | inhibition of cell death induced by CD154 alone (L929 cells [10]): inhibited | inhibition of cell death induced by both CD154 and IFNγ (L929 cells [10]; IFNγ 100 U/ml): inhibited | inhibition of zVAD.fmk-induced production of TNFα ([11]; 10 μM co-treatment with 20 μM zVAD.fmk): almost completely inhibits | effect on survival of microglia primary cells [12]: minor protective effect

CN[C@@H](C)C(=O)N[C@H]1CCCC[C@H]2CC[C@@H](C(=O)N[C@@H](c3ccccc3)c3cn(CCCCc4ccc(CCCCn5cc([C@@H](NC(=O)[C@@H]6CC[C@@H]7CCCC[C@H](NC(=O)[C@H](C)NC)C(=O)N76)c6ccccc6)nn5)cc4)nn3)N2C1=O [SM-164, reference compound]
TNFα production after treatment ([3]; SM-164 treatment, ELISA on cell lysates): induced an increase | cell death induced by treatment (L929 cells [5]; 100 nM, L929 cells, ATP assay): undergo cell death

COC(=O)C[C@H](NC(=O)[C@H](C)NC(=O)[C@@H](NC(=O)OCc1ccccc1)C(C)C)C(=O)CF [zVAD.fmk, reference compound] (Cbz-Val-Ala-Asp(OMe)-CH2F)
TNFα protein levels after treatment ([11]; 20 μM zVAD.fmk, ELISA in cell lysate): upregulation
